This assay concerns the target IRAK4 (Homo sapiens (Human), UniProt Q9NWZ3). Description: IRAK-4 AlphaScreen biochemical kinase assay. The following applies: 1 nM IRAK4, 1 mM ATP, 3.5 h at RT. The gist of the method:
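AlphaScreen read-out: streptavidin beads bind the biotinylated peptide and protein A beads bind the anti-phosphothreonine antibody, so energy transfer reports phosphorylation of the peptide. The kinase is human IRAK-4.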
(In general: In Alpha technology, singlet oxygen from a donor bead excites a nearby acceptor bead.)
Sequence of IRAK4 (Q9NWZ3 whole entry, species assumed): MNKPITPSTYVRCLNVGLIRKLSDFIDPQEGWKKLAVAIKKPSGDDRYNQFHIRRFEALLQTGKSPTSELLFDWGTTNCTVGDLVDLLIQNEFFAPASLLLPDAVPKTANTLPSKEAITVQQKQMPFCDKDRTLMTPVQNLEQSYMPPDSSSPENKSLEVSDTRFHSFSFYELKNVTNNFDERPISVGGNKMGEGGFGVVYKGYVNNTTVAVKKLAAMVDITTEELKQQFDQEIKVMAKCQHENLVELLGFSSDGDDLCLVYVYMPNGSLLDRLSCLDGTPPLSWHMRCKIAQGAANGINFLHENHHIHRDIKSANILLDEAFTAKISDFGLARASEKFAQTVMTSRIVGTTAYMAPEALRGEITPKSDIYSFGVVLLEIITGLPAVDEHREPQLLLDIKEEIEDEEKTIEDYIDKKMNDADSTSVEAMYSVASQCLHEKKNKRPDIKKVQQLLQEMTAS
As for `C[C@H](N)c1cccc(-c2ccc3cnn(-c4cccc(C(=O)O)n4)c3c2)n1` [Example 472, 6-{6-[6-((S)-1-Amino-ethyl)-pyridin-2-yl]-indazol-1-yl}-pyridine-2-carboxylic acid], the IC50 lay within 1000 to 10000 nM. As for `CCC[C@H](N)c1cccc(-c2cc(C3CCCO3)c3cnn(-c4cccc(CO)n4)c3c2)n1` (stereo partly drawn) [Example 477, (6-(6-(6-((S)-1-aminobutyl)pyridin-2-yl)-4-(tetrahydrofuran-2-yl)-1H-indazol-1-yl)pyridin-2-yl)methanol], the IC50 was under 100 nM. The molecule `CCC[C@H](N)c1cccc(-c2cc([C@H]3CC[C@@H](C)O3)c3cnn(-c4cccc(CO)n4)c3c2)n1` [Example 478, (6-(6-(6-((S)-1-aminobutyl)pyridin-2-yl)-4-((2R,5R)-5-methyltetrahydrofuran-2-yl)-1H-indazol-1-yl)pyridin-2-yl)methanol] displayed an IC50 of under 100 nM. Then `CCC[C@H](N)c1cccc(-c2cc([C@@H]3CC[C@@H](C)O3)c3cnn(-c4cccc(CO)n4)c3c2)n1` [Example 479, (6-(6-(6-((S)-1-aminobutyl)pyridin-2-yl)-4-((2S,5R)-5-methyltetrahydrofuran-2-yl)-1H-indazol-1-yl)pyridin-2-yl)methanol], with under 100 nM; and `CCC[C@H](N)c1cccc(-c2cc(OCCOC)c3cnn(-c4cncc(CO)n4)c3c2)n1` [Example 480, (S)-(6-(6-(6-(1-aminobutyl)pyridin-2-yl)-4-(2-methoxyethoxy)-1H-indazol-1-yl)pyrazin-2-yl)methanol], with under 100 nM; and `COCCOc1cc(-c2cccc([C@H](C)N)n2)cc2c1cnn2-c1cncc(CO)n1` [Example 481, (S)-(6-(6-(6-(1-aminoethyl)pyridin-2-yl)-4-(2-methoxyethoxy)-1H-indazol-1-yl)pyrazin-2-yl)methanol], with under 100 nM.

Molecule `CC[C@H](N)c1cccc(-c2cc(OCCOC)c3cnn(-c4cncc(CO)n4)c3c2)n1` [Example 482, (S)-(6-(6-(6-(1-aminopropyl)pyridin-2-yl)-4-(2-methoxyethoxy)-1H-indazol-1-yl)pyrazin-2-yl)methanol] came in with a half-maximal inhibitory concentration (IC50) of under 100 nM. The molecule `COCCOc1cc(-c2cccc([C@@H](N)CCCO)n2)cc2c1cnn2-c1cccc(CO)n1` [Example 484, (S)-4-amino-4-(6-(1-(6-(hydroxymethyl)pyridin-2-yl)-4-(2-methoxyethoxy)-1H-indazol-6-yl)pyridin-2-yl)butan-1-ol] displayed a half-maximal inhibitory concentration (IC50) of under 100 nM.

For the molecule `Cc1cccc(-n2ncc3ccc(-c4cccc(C(N)CC(F)(F)F)n4)cc32)n1` (centres unmarked) [Example 551, 3,3,3-trifluoro-1-(6-(1-(6-methylpyridin-2-yl)-1H-indazol-6-yl)pyridin-2-yl)propan-1-amine], the IC50 lay in the range of 100 to 1000 nM. As to `Cc1cccc(-n2ncc3c(-c4nnc(C)o4)cc(-c4cccc(C(C)N)n4)cc32)n1` (centres unmarked) [Example 557, 1-(6-(4-(5-methyl-1,3,4-oxadiazol-2-yl)-1-(6-methylpyridin-2-yl)-1H-indazol-6-yl)pyridin-2-yl)ethanamine], the IC50 was 100 to 1000 nM. With `Cc1cncc(-n2ncc3ccc(-c4cccc(C(C)N)n4)cc32)n1` (centres unmarked) [Example 559, 1-(6-(1-(6-methylpyrazin-2-yl)-1H-indazol-6-yl)pyridin-2-yl)ethanamine] the figure was 100 to 1000 nM; with `N#CC(N)c1cccc(-c2ccc3cnn(-c4cccc(CO)n4)c3c2)n1` (centres unmarked) [Example 560, 2-amino-2-(6-(1-(6-(hydroxymethyl)pyridin-2-yl)-1H-indazol-6-yl)pyridin-2-yl)acetonitrile], 1000 to 10000 nM. For `NC(=O)C(N)c1cccc(-c2ccc3cnn(-c4cccc(CO)n4)c3c2)n1` (centres unmarked) [Example 561, 2-amino-2-(6-(1-(6-(hydroxymethyl)pyridin-2-yl)-1H-indazol-6-yl)pyridin-2-yl)acetamide], the IC50 lay in the range of 100 to 1000 nM. With `CC(N)c1cccc(-c2ccc3cnn(-c4ccnc(C#N)n4)c3c2)n1` (centres unmarked) [Example 562, 4-(6-(6-(1-aminoethyl)pyridin-2-yl)-1H-indazol-1-yl)pyrimidine-2-carbonitrile], the IC50 is 1000 to 10000 nM. Turning to `CC(N)c1cccc(-c2ccc3cnn(-c4cccc(CO)n4)c3c2)c1` (centres unmarked) [Example 563, (6-(6-(3-(1-aminoethyl)phenyl)-1H-indazol-1-yl)pyridin-2-yl)methanol], the half-inhibitory concentration (IC50) lay in the range of 100 to 1000 nM. Molecule `CC(N)c1ccc(F)c(-c2ccc3cnn(-c4cccc(CO)n4)c3c2)n1` (centres unmarked) [Example 564, (6-(6-(6-(1-aminoethyl)-3-fluoropyridin-2-yl)-1H-indazol-1-yl)pyridin-2-yl)methanol] showed an IC50 of 100 to 1000 nM. Molecule `C[C@H](N)c1cccc(-c2ccc3cnn(-c4nc(CO)ccc4F)c3c2)n1` [Example 565, (S)-(6-(6-(6-(1-aminoethyl)pyridin-2-yl)-1H-indazol-1-yl)-5-fluoropyridin-2-yl)methanol] returned an IC50 of 100 to 1000 nM. Then `CCC[C@@H](c1cccc(-c2ccc3cnn(-c4cccc(CO)n4)c3c2)n1)N(C)C` [Example 566, (S)-(6-(6-(6-(1-(dimethylamino)butyl)pyridin-2-yl)-1H-indazol-1-yl)pyridin-2-yl)methanol], with 100 to 1000 nM.

`CNC(=O)C(N)c1cccc(-c2ccc3cnn(-c4cccc(CO)n4)c3c2)n1` (centres unmarked) [Example 567, 2-amino-2-(6-(1-(6-(hydroxymethyl)pyridin-2-yl)-1H-indazol-6-yl)pyridin-2-yl)-N-methylacetamide] yielded an IC50 of 100 to 1000 nM. `C[S+]([O-])CC(N)c1cccc(-c2ccc3cnn(-c4cccc(CO)n4)c3c2)n1` (centres unmarked) [Example 568, (6-(6-(6-(1-amino-2-(methylsulfinyl)ethyl)pyridin-2-yl)-1H-indazol-1-yl)pyridin-2-yl)methanol] gave an IC50 of 1000 to 10000 nM. The molecule `CCC[C@H](N)c1cccc(-c2cc(C(C)OC)c3cnn(-c4cccc(CO)n4)c3c2)n1` (stereo partly drawn) [Example 569, (6-(6-(6-((S)-1-aminobutyl)pyridin-2-yl)-4-(1-methoxyethyl)-1H-indazol-1-yl)pyridin-2-yl)methanol] displayed an IC50 of under 100 nM. The molecule `CCC[C@H](N)c1cccc(-c2cc(Cl)c3cnn(-c4nccc(C(F)F)n4)c3c2)n1` [Example 570, (S)-1-(6-(4-chloro-1-(4-(difluoromethyl)pyrimidin-2-yl)-1H-indazol-6-yl)pyridin-2-yl)butan-1-amine] gave a 50% inhibitory concentration (IC50) of under 100 nM. Molecule `OCc1cccc(-n2ncc3ccc(-c4cccc(C5CCCN5)n4)cc32)n1` (centres unmarked) [Example 571, (6-(6-(6-(pyrrolidin-2-yl)pyridin-2-yl)-1H-indazol-1-yl)pyridin-2-yl)methanol] yielded a concentration for half-maximal inhibition (IC50) of 100 to 1000 nM. Then `CCC[C@H](N)c1cccc(-c2cc(OC)c3cnn(-c4nccc(C(F)F)n4)c3c2)n1` [Example 572, (S)-1-(6-(1-(4-(difluoromethyl)pyrimidin-2-yl)-4-methoxy-1H-indazol-6-yl)pyridin-2-yl)butan-1-amine], with under 100 nM; and `CCC[C@H](N)c1cccc(-c2cc([C@@H]3CCCN3)c3cnn(-c4cccc(CO)n4)c3c2)n1` [Example 573, (6-(6-(6-((S)-1-aminobutyl)pyridin-2-yl)-4-((S)-pyrrolidin-2-yl)-1H-indazol-1-yl)pyridin-2-yl)methanol], with under 100 nM. In turn, `CCC[C@H](N)c1ccnc(-c2cc(OC)c3cnn(-c4cccc(CO)n4)c3c2)n1` [Example 574, (S)-(6-(6-(4-(1-aminobutyl)pyrimidin-2-yl)-4-methoxy-1H-indazol-1-yl)pyridin-2-yl)methanol] registered an IC50 of under 100 nM. With `COCCC[C@H](N)c1cccc(-c2cc(-c3ccn(C)n3)c3cnn(-c4cccc(CO)n4)c3c2)n1` [Example 575, (S)-(6-(6-(6-(1-amino-4-methoxybutyl)pyridin-2-yl)-4-(1-methyl-1H-pyrazol-3-yl)-1H-indazol-1-yl)pyridin-2-yl)methanol] the figure was under 100 nM; with `CCC[C@@H](N)c1ccnc(-c2cc(OC)c3cnn(-c4cccc(CO)n4)c3c2)n1` [Example 576, (R)-(6-(6-(4-(1-aminobutyl)pyrimidin-2-yl)-4-methoxy-1H-indazol-1-yl)pyridin-2-yl)methanol], under 100 nM. Molecule `Cc1cnc(-c2cc(-c3cccc([C@H](C)N)n3)cc3c2cnn3-c2cccc(CO)n2)o1` [Example 577, (S)-(6-(6-(6-(1-aminoethyl)pyridin-2-yl)-4-(5-methyloxazol-2-yl)-1H-indazol-1-yl)pyridin-2-yl)methanol] returned a half-inhibitory concentration (IC50) of under 100 nM. `CCC[C@H](N)c1cccc(-c2cc(-n3ccnn3)c3cnn(-c4cccc(CO)n4)c3c2)n1` [Example 578, (S)-(6-(6-(6-(1-aminobutyl)pyridin-2-yl)-4-(1H-1,2,3-triazol-1-yl)-1H-indazol-1-yl)pyridin-2-yl)methanol] showed a half-inhibitory concentration (IC50) of under 100 nM.

Turning to `CCC[C@H](N)c1cccc(-c2cc(COC(F)(F)F)c3cnn(-c4cccc(CO)n4)c3c2)n1` [Example 579, (S)-(6-(6-(6-(1-aminobutyl)pyridin-2-yl)-4-((trifluoromethoxy)methyl)-1H-indazol-1-yl)pyridin-2-yl)methanol], the IC50 was under 100 nM.

The molecule `CCCC[C@H](N)c1ccnc(-c2ccc3cnn(-c4cccc(CO)n4)c3c2)n1` [Example 580, (S)-(6-(6-(4-(1-aminopentyl)pyrimidin-2-yl)-1H-indazol-1-yl)pyridin-2-yl)methanol] came in with an IC50 of under 100 nM. In turn, `N#CC[C@@H](N)c1cccc(-c2ccc3cnn(-c4cccc(CO)n4)c3c2)n1` [Example 581, (R)-3-amino-3-(6-(1-(6-(hydroxymethyl)pyridin-2-yl)-1H-indazol-6-yl)pyridin-2-yl)propanenitrile] yielded an IC50 of 100 to 1000 nM. `CCC[C@H](N)c1cccc(-c2cc(-c3ncc(C)o3)c3cnn(-c4cccc(CO)n4)c3c2)n1` [Example 582, (S)-(6-(6-(6-(1-aminobutyl)pyridin-2-yl)-4-(5-methyloxazol-2-yl)-1H-indazol-1-yl)pyridin-2-yl)methanol] had a half-maximal inhibitory concentration (IC50) of under 100 nM.

As for `CCC[C@H](N)c1ccnc(-c2cc(OCC)c3cnn(-c4cccc(CO)n4)c3c2)n1` [Example 583, (S)-(6-(6-(4-(1-aminobutyl)pyrimidin-2-yl)-4-ethoxy-1H-indazol-1-yl)pyridin-2-yl)methanol], the IC50 was under 100 nM.

One may read the IC50 as the concentration that inhibits the measured activity by half.

The values above are taken from patent publication US10246456B2, “IRAK4 inhibiting agents” (BIOGEN MA INC., priority 2014, dated 2019).
